Columns and labels:
Format in all cases: binding, Chaetomium thermophilum
Erb1/Ytm1 complex = target: T1, Erb1/Ytm1 complex (Thermochaetoides thermophila, UniProt G0SFB5); assay: Biolayer interferometry peptide interference assay, immobilized Erb1, Ytm1 analyte preincubated with P1-P3; conditions: BLI, 5 µM Ytm1 preincubated with equimolar peptide, reference without peptide 1.724e-3
T1 construct: 6xHis; made in house; host or cells: Ytm1: Sf9 insect cells (baculovirus); Erb1: Escherichia coli (DE3) BL21 CodonPlus (RIPL)
T1 sequence (G0SFB5 1-495): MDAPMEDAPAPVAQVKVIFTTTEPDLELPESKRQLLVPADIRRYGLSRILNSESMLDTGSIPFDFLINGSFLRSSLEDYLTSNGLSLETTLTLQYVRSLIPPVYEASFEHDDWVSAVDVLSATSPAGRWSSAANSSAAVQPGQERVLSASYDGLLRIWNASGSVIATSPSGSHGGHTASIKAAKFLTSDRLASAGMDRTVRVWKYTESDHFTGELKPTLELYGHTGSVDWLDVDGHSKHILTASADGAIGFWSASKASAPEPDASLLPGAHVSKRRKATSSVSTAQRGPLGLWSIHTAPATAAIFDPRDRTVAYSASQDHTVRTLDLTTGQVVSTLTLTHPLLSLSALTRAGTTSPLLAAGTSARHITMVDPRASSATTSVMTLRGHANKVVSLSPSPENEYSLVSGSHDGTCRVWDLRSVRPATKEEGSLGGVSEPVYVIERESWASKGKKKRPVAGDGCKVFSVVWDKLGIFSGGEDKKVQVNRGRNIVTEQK
Protocol: Peptides were commercially obtained from Synpeptide Co., Ltd., Shanghai, China. All experiments have been made in triplicates and include control curves for bait and analyte only.
Potential interference peptide samples were evaluated by their ability to interfere the kinetics and affinity of the complex between Erb1 and Ytm1 as measured by Biolayer Interferometry (BLItz, Pall FortéBio Corp.) using Ni-NTA biosensors (FortéBio) and 50 mM HEPES, pH 7.5; 150 mM NaCl; 5% (v/v) glycerol; and 2 mM β-mercaptoethanol (BME) buffer. To set the reference KD, an 80 µg/ml solution of Erb1 was immobilized to the biosensor in order to obtain binding curves for increasing concentrations of Ytm1. According to this, an evaluation of Erb1-derived peptides (P1–P3) was performed using 5 µM Ytm1 previously incubated during 30 min at equimolar concentrations of each peptide. New KD values were determined. […]
Biolayer interferometry interference assays were used to evaluate the ability of each peptide to interfere in the in vitro formation of the Erb1/Ytm1 complex. […] Peptides were evaluated for their ability to decrease in the Erb1/Ytm1 complex formation by preincubating the analyte with each peptide derived from the immobilized partner. […] Erb1-derived peptides were evaluated by their ability to decrease Erb1/Ytm1 complex affinity. […]

Ytm1 [1] = target: T2, Ytm1 (Thermochaetoides thermophila, UniProt G0SFB5); assay: Differential scanning fluorimetry (thermofluor) of Ytm1 with peptide; conditions: DSF, SYPRO Orange 1:1,000; 5 µM Ytm1, 1 mM peptide; 50 mM HEPES pH 7.5, 150 mM NaCl; 20-85°C at 1°C/min; triplicates
T2 construct: 6xHis; made in house; host or cells: Sf9 insect cells (baculovirus)
T2 sequence (G0SFB5 1-495): T1 sequence (G0SFB5 1-495)
Protocol: Thermofluor assays ([Pantoliano et al., 2001]) were performed on a 7,500 Fast Real-Time PCR System (Applied Biosystems) measuring the gradual fluorescence generated by a 1:1,000 dilution of SYPRO Orange Protein Stain Gel (Supelco, Merck-Sigma) along with 1°C/min temperature increase from 20°C until 85°C.
The samples were mixed containing the protein Ytm1 at 5 µM in 50 mM HEPES pH 7.5, 150 mM NaCl and peptides P1-P3 at 1 mM concentration. Previously, lyophilized P2 and P3 were resuspended in the same Ytm1 buffer and P1 was solubilized in 10 mM Tris (hydroxymethyl)-methylamine (Tris-HCl), pH 8.8 for P1. Data of triplicated experiments were analyzed using GraphPad Prism 5.01 software.

Ytm1 [2] = target: T2, Ytm1; assay: Microscale thermophoresis of labelled Ytm1 with peptide; conditions: peptide at a maximum concentration of 1,580 µM, data quality did not allow fitting of KD
Protocol: Microscale thermophoresis (MST) was used to determine the binding affinity between Ytm1 and P1. Ytm1 was labeled with a Red-NHS second-generation dye kit (100 µl at 10 µM of protein +300 µM dye solution) for 30 min at room temperature in the dark. 5 nM of labeled Ytm1 in 50 mM HEPES pH 7.5, NaCl 150 mM supplemented with 0.1% (v/v) Pluronic F-127 was used for the assay. P1 stock is diluted in 10 mM Tris (hydroxymethyl)-methylamine (Tris-HCl), pH 8.8. Ytm1 and P1 were mixed at 1:1 molar ratio in sixteen serial dilutions (1,230 μM–0.0751 µM) using the same buffer. Measurements were taken on a Monolith NT.115 instrument (NanoTemper Technologies). Similarly biding between Ytm1 and P3 using MST was tested using the same Ytm1 buffer also for P3. Curve fitting and KD calculations every 10 min were analyzed from three independent experiments with MO. […] Curves were analyzed using Affinity Analysis Software (NanoTemper Technologies).

DWHPREPWCV [Peptide P3, Erb1-derived peptide …, residues 780–789]
kd (1/s) of Erb1/Ytm1 binding after preincubation of Ytm1 with peptide (Erb1/Ytm1 complex): 0.01238 s⁻¹
Thermal shift (Tm) of Ytm1 in the presence of peptide (Ytm1 [1]): did not show any significant thermal shift
Binding to Ytm1 by MST (in words) (Ytm1 [2]): tendency toward binding
